These results are taken from patent US12180187B2, “1-phenyl-5-azinylpyrazolyl-3-oxyalkyl acids and their use for controlling unwanted plant growth” (BAYER AKTIENGESELLSCHAFT, priority 2019, dated 2024).

In general, pest or weed control refers to how far the test organism was held down. A low value points to weak suppression.

Experiment [1] has as its system MATIN. As to the kind of experiment: Post-emergence action against MATIN, 1.28 kg/ha. In kind it is in vivo, Tripleurospermum inodorum (Matricaria inodora). As to conditions: dosage 1280 g/ha, visual rating about 3 weeks after treatment vs untreated controls (100% = plants died). In outline:
(§1)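 Foliar application at the one-leaf stage: compound as WP or EC in water with 0.5% additive, sprayed at 600 L/ha. Plants are kept about 3 weeks in the greenhouse, then % herbicidal action is estimated visually (100% = death).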

The subject of experiment [2] is AMARE. Nature of the experiment: Pre-emergence action against AMARE, 1280 g/ha. In kind it is in vivo, Amaranthus retroflexus. As to conditions: Amaranthus retroflexus, 504 h, scored visually after about 3 weeks vs untreated controls (100% = plants have died). In outline:
(§2)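 Weed seeds sown in sandy loam in pots, covered with soil; compound as WP or EC applied to soil surface as aqueous suspension/emulsion with 0.5% additive at 600 L/ha water. Greenhouse, good growth conditions; visual % damage vs untreated controls after about 3 weeks (100% = plants dead, 0% = like control).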

The subject of experiment [3] is MATIN. Nature of the experiment: Pre-emergence action at 320 g/ha against MATIN. As to conditions: Tripleurospermum inodorum, 504 h, visual scoring after about 3 weeks vs untreated controls. Format: in vivo, Tripleurospermum inodorum (Matricaria inodora). In outline: (§3)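 Sow seeds, cover with soil, spray soil surface (WP/EC, 0.5% additive, 600 l/ha water), hold in greenhouse ~3 wk, then rate % activity visually against untreated controls.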

A further experiment relates to ECHCG. As to the kind of experiment: Pre-emergence action against ECHCG, 1280 g/ha. In kind it is in vivo, Echinochloa crus-galli. As to conditions: Echinochloa crus-galli, 504 h, visual scoring after about 3 weeks vs untreated controls, 100% = plants have died, 0% = like control plants. In outline:
as §2

In experiment [4] the test system is SETVI. Nature of the experiment: Pre-emergence action at 320 g/ha against SETVI. In kind it is in vivo, Setaria viridis. As to conditions: Setaria viridis, 504 h, visual scoring after about 3 weeks vs untreated controls. In outline: as §3
Experiment [5] deals with DIGSA. Nature of the experiment: Post-emergence action against DIGSA, 1.28 kg/ha. Format: in vivo, Digitaria sanguinalis. As to conditions: dosage 1280 g/ha, visual rating about 3 weeks after treatment vs untreated controls. In outline:
as §1

Experiment [6] concerns AMARE. Nature of the experiment: Pre-emergence action at 320 g/ha against AMARE. Format: in vivo, Amaranthus retroflexus. The conditions noted are these: Amaranthus retroflexus, 504 h, visual scoring after about 3 weeks vs untreated controls. In outline: as §3
In experiment [7] the test system is SETVI. As to the kind of experiment: Pre-emergence action against SETVI, 1280 g/ha. In kind it is in vivo, Setaria viridis. The conditions noted are these: Setaria viridis, 504 h, visual scoring after about 3 weeks vs untreated controls, 100% = plants have died, 0% = like control plants. In outline: as §2
Experiment [8] has as its system POAAN. As to the kind of experiment: Pre-emergence action against POAAN, 1280 g/ha. In kind it is in vivo, Poa annua. The conditions noted are these: Poa annua, 504 h, visual scoring after about 3 weeks vs untreated controls, 100% = plants have died, 0% = like control plants. In outline: as §2
For a further experiment, the system named is VERPE. Nature of the experiment: Pre-emergence action at 320 g/ha against VERPE. Format: in vivo, Veronica persica. As to conditions: Veronica persica, 504 h, visual scoring after about 3 weeks vs untreated controls. In outline: as §3
The next experiment relates to ALOMY. Nature of the experiment: Pre-emergence action at 320 g/ha against ALOMY. The conditions noted are these: Alopecurus myosuroides, 504 h, scored visually after about 3 weeks vs untreated controls (100% = plants have died). In kind it is in vivo, Alopecurus myosuroides. In outline:
as §3

Experiment [9] deals with MATIN. As to the kind of experiment: Pre-emergence action against MATIN, 1280 g/ha. Format: in vivo, Tripleurospermum inodorum (Matricaria inodora). As to conditions: Tripleurospermum inodorum, 504 h, scored visually after about 3 weeks vs untreated controls (100% = plants have died). In outline: as §2
Another experiment deals with POLCO. Nature of the experiment: Pre-emergence action at 320 g/ha against POLCO. In kind it is in vivo, Fallopia convolvulus (Polygonum convolvulus). As to conditions: Fallopia convolvulus, 504 h, visual scoring after about 3 weeks vs untreated controls. In outline:
as §3

Experiment [10] relates to DIGSA. As to the kind of experiment: Pre-emergence action at 320 g/ha against DIGSA. Format: in vivo, Digitaria sanguinalis. As to conditions: Digitaria sanguinalis, 504 h, visual scoring after about 3 weeks vs untreated controls. In outline: as §3
The subject of a further experiment is STEME. As to the kind of experiment: Pre-emergence action against STEME, 1280 g/ha. Format: in vivo, Stellaria media. The conditions noted are these: Stellaria media, 504 h, scored visually after about 3 weeks vs untreated controls (100% = plants have died). In outline:
as §2

The subject of experiment [11] is POAAN. As to the kind of experiment: Post-emergence action against POAAN, 1.28 kg/ha. Format: in vivo, Poa annua. As to conditions: Poa annua, 504 h, dosage 1280 g/ha, visual rating about 3 weeks after treatment vs untreated controls. In outline: as §1

For `O=C(O)COc1nn(-c2ccccc2F)c(-c2cncnc2)c1Br` [VI-007, {[4-Bromo-1-(2-fluorophenyl)-5-(pyrimidin-5-yl)-1H-pyrazol-3-yl]oxy}acetic Acid], the “Post-emergence action against MATIN” value with MATIN [1] came out at 90%. Moreover, the pest or weed control at 1280 g/ha in the experiment on AMARE [2], in the experiment with ECHCG, in the experiment on SETVI [7], with POAAN [8], with MATIN [9] and with STEME was 100% in each case. In the experiment on POAAN [11], this compound displayed a pest or weed control at 1280 g/ha of 100%. The pest or weed control at 320 g/ha with MATIN [3] stood at 100%; with SETVI [4] it was 100%; in the experiment on AMARE [6], 100%; in the experiment on VERPE it was 100%; in the experiment on ALOMY it was 80%; in the experiment with POLCO, 100%. Moreover, the pest or weed control at 320 g/ha in the experiment on DIGSA [10] stood at 100%. Besides, in the experiment with DIGSA [5], the “Post-emergence action against DIGSA” value was 100%.
